Test results reported in US5137892A, “Quinoline, naphthyridine and pyridobenzoxazine derivatives” (Abbott Laboratories, priority 1990, dated 1992).
≈ marks a conversion by molar mass, not a printed value.

How the values were obtained:
Format in all cases: cell-based
[1] = test system: Pseudomonas aeruginosa K599/61; settings: P. aeruginosa K599/61; BHI agar dilution, 20-24 hours; unit assumed
Method: (§1) The activity of the compounds of the present invention was tested against a wide variety of bacteria using standard assay procedures. Minimum inhibitory concentrations (MICs) were determined by the agar dilution method, described below, using Brain Heart Infusion agar.
(§2) Twelve petri dishes were prepared, each containing successive aqueous 2-fold dilutions of the test compounds mixed with 10 mL of sterilized Brain Heart Infusion (BHI) agar. Each plate was inoculated with 100-fold (or 10-fold, for slow-growing strains such as Micrococcus and Streptococcus) dilutions of up to 32 different microorganisms using a Steers replicator block calibrated to deliver approximately 10^4 colony forming units (CFUs). The inoculated plates were incubated at about 35°-37° C. for approximately 20-24 hours. In addition, a control plate, using BHI agar containing no test compound, was prepared and incubated at the beginning and at the end of each test. Ciprofloxacin was used as the reference antibiotic.
(§3) The MIC was defined as the lowest concentration of test compound yielding no growth (a slight haze or sparsely isolated colonies at the inoculum spot as compared to the growth control contaning no test compound.

[2] = test system: Pseudomonas aeruginosa A5007; experiment: In Vitro Antibacterial Activity, agar dilution MIC; settings: P. aeruginosa A5007; BHI agar dilution, 20-24 hours; unit assumed
Method: as §1, §2, §3

Escherichia coli DC-2 = experiment: In Vitro Antibacterial Activity, agar dilution MIC; settings: E. coli DC-2; BHI agar dilution, 20-24 hours; unit assumed
Method: as §1, §2, §3

[3] = test system: Streptococcus pyogenes EES61; experiment: In Vitro Antibacterial Activity, agar dilution MIC; settings: S. pyogenes EES61; BHI agar dilution, 20-24 hours; unit assumed
Method: as §1, §2, §3

[4] = test system: Klebsiella pneumoniae ATCC 8045; experiment: In Vitro Antibacterial Activity, agar dilution MIC; settings: K. pneumoniae ATCC 8045; BHI agar dilution, 20-24 hours; unit assumed
Method: as §1, §2, §3

[5] = test system: Enterobacter aerogenes ATCC 13048; experiment: In Vitro Antibacterial Activity, agar dilution MIC; settings: E. aerogenes ATCC 13048; BHI agar dilution, 20-24 hours; unit assumed
Method: as §1, §2, §3

[6] = test system: Staphylococcus aureus ATCC 6538P; experiment: In Vitro Antibacterial Activity, agar dilution MIC; settings: S. aureus ATCC 6538P; BHI agar dilution, 20-24 hours; unit assumed
Method: as §1, §2, §3

[7] = test system: Pseudomonas aeruginosa K799/WT; experiment: In Vitro Antibacterial Activity, agar dilution MIC; settings: P. aeruginosa K799/WT; BHI agar dilution, 20-24 hours; unit assumed
Method: as §1, §2, §3

Pseudomonas cepacia 2961 = experiment: In Vitro Antibacterial Activity, agar dilution MIC; settings: P. cepacia 2961; BHI agar dilution, 20-24 hours; unit assumed
Method: as §1, §2, §3

[8] = test system: Streptococcus pyogenes 930 CONST; experiment: In Vitro Antibacterial Activity, agar dilution MIC; settings: S. pyogenes 930 CONST; BHI agar dilution, 20-24 hours; unit assumed
Method: as §1, §2, §3

Staphylococcus aureus 45 = experiment: In Vitro Antibacterial Activity, agar dilution MIC; settings: S. aureus 45; BHI agar dilution, 20-24 hours; unit assumed
Method: as §1, §2, §3

[9] = test system: Streptococcus agalactaciae CMX 508; experiment: In Vitro Antibacterial Activity, agar dilution MIC; settings: S. agalactaciae CMX 508; BHI agar dilution, 20-24 hours; unit assumed
Method: as §1, §2, §3

[10] = test system: Staphylococcus aureus A5177; experiment: In Vitro Antibacterial Activity, agar dilution MIC; settings: S. aureus A5177; BHI agar dilution, 20-24 hours; unit assumed
Method: as §1, §2, §3

Escherichia coli JUHL = experiment: In Vitro Antibacterial Activity, agar dilution MIC; settings: E. coli JUHL; BHI agar dilution, 20-24 hours; unit assumed
Method: as §1, §2, §3

Escherichia coli SS = experiment: In Vitro Antibacterial Activity, agar dilution MIC; settings: E. coli SS; BHI agar dilution, 20-24 hours; unit assumed
Method: as §1, §2, §3

Acinetobacter SP CMX 699 = experiment: In Vitro Antibacterial Activity, agar dilution MIC; settings: BHI agar dilution, 20-24 hours, unit assumed
Method: as §1, §2, §3

[11] = test system: Staphylococcus aureus NCTC 10649; experiment: In Vitro Antibacterial Activity, agar dilution MIC; settings: S. aureus NCTC 10649; BHI agar dilution, 20-24 hours; unit assumed
Method: as §1, §2, §3

Escherichia coli KNK 437 = experiment: In Vitro Antibacterial Activity, agar dilution MIC; settings: E. coli KNK 437; BHI agar dilution, 20-24 hours; unit assumed
Method: as §1, §2, §3

[12] = test system: Providencia stuartii CMX 640; experiment: In Vitro Antibacterial Activity, agar dilution MIC; settings: P. stuartii CMX 640; BHI agar dilution, 20-24 hours; unit assumed
Method: as §1, §2, §3

[13] = test system: Micrococcus luteus ATCC 9341; experiment: In Vitro Antibacterial Activity, agar dilution MIC; settings: M. luteus ATCC 9341; BHI agar dilution, 20-24 hours; unit assumed
Method: as §1, §2, §3

[14] = test system: Staphylococcus aureus 1775; experiment: In Vitro Antibacterial Activity, agar dilution MIC; settings: S. aureus 1775; BHI agar dilution, 20-24 hours; unit assumed
Method: as §1, §2, §3

[15] = test system: Micrococcus luteus ATCC 4698; experiment: In Vitro Antibacterial Activity, agar dilution MIC; settings: M. luteus ATCC 4698; BHI agar dilution, 20-24 hours; unit assumed
Method: as §1, §2, §3

[16] = test system: Staphylococcus aureus CMX 553; experiment: In Vitro Antibacterial Activity, agar dilution MIC; settings: S. aureus CMX 553; BHI agar dilution, 20-24 hours; unit assumed
Method: as §1, §2, §3

[17] = test system: Streptococcus bovis A5169; experiment: In Vitro Antibacterial Activity, agar dilution MIC; settings: S. bovis A5169; BHI agar dilution, 20-24 hours; unit assumed
Method: as §1, §2, §3

[18] = test system: Staphylococcus aureus 642A; experiment: In Vitro Antibacterial Activity, agar dilution MIC; settings: S. aureus 642A; BHI agar dilution, 20-24 hours; unit assumed
Method: as §1, §2, §3

Escherichia coli H560 = experiment: In Vitro Antibacterial Activity, agar dilution MIC; settings: E. coli H560; BHI agar dilution, 20-24 hours; unit assumed
Method: as §1, §2, §3

[19] = test system: Enterococcus faecium ATCC 8043; experiment: In Vitro Antibacterial Activity, agar dilution MIC; settings: E. faecium ATCC 8043; BHI agar dilution, 20-24 hours; unit assumed
Method: as §1, §2, §3

[20] = test system: Staphylococcus epidermidis 3519; experiment: In Vitro Antibacterial Activity, agar dilution MIC; settings: S. epidermidis 3519; BHI agar dilution, 20-24 hours; unit assumed
Method: as §1, §2, §3

[21] = test system: Pseudomonas aeruginosa BMH10; experiment: In Vitro Antibacterial Activity, agar dilution MIC; settings: P. aeruginosa BMH10; BHI agar dilution, 20-24 hours; unit assumed
Method: as §1, §2, §3

[22] = test system: Streptococcus pyogenes 2548 INDUC; experiment: In Vitro Antibacterial Activity, agar dilution MIC; settings: S. pyogenes 2548 INDUC; BHI agar dilution, 20-24 hours; unit assumed
Method: as §1, §2, §3

[23] = test system: Staphylococcus aureus A-5278; experiment: In Vitro Antibacterial Activity, agar dilution MIC; settings: S. aureus A-5278; BHI agar dilution, 20-24 hours; unit assumed
Method: as §1, §2, §3

[24] = test system: Pseudomonas aeruginosa 2862; experiment: In Vitro Antibacterial Activity, agar dilution MIC; settings: P. aeruginosa 2862; BHI agar dilution, 20-24 hours; unit assumed
Method: as §1, §2, §3

[25] = test system: Pseudomonas aeruginosa 5263; experiment: In Vitro Antibacterial Activity, agar dilution MIC; settings: P. aeruginosa 5263; BHI agar dilution, 20-24 hours; unit assumed
Method: as §1, §2, §3

Row | SMILES | MIC values [1] [µg/mL] | MIC values [2] [µg/mL] | MIC values (Escherichia coli DC-2) [µg/mL] | MIC values [3] [µg/mL] | MIC values [4] [µg/mL] | MIC values [5] [µg/mL] | MIC values [6] [µg/mL] | MIC values [7] [µg/mL] | MIC values (Pseudomonas cepacia 2961) [µg/mL] | MIC values [8] [µg/mL] | MIC values [9] [µg/mL] | MIC values [10] [µg/mL] | MIC values (Escherichia coli JUHL) [µg/mL] | MIC values (Escherichia coli SS) [µg/mL] | MIC values (Acinetobacter SP CMX 699) [µg/mL] | MIC values [11] [µg/mL] | MIC values (Escherichia coli KNK 437) [µg/mL] | MIC values [12] [µg/mL] | MIC values [13] [µg/mL] | MIC values [14] [µg/mL] | further results
1 | Cl.Cl.NCC1COC2(CCN(c3cc4c(cc3F)c(=O)c(C(=O)O)cn4-c3ccc(F)cc3F)C2)O1 (centres unmarked) [Example 159, 1-(2,4-difluorophenyl)-7-(2-aminomethyl-1,4-dioxa-7-azaspiro[4.4]non-7-yl)-6-fluoro-1,4-dihydro-4-oxo-3-quinolinecarboxylic acid dihydrochloride] | 0.39 | 3.1 | 6.2 | 0.39 | 0.39 | 0.78 | 0.2 | 3.1 | 50 | 0.39 | 0.78 | 0.39 | 0.39 | 0.02 | 0.78 | 0.2 | 3.1 | 25 | 12.5 | 100 | MIC values (Staphylococcus aureus 45): 0.78 µg/mL; MIC values [15]: 6.2 µg/mL; MIC values [16]: 0.78 µg/mL; MIC values [17]: 0.78 µg/mL; MIC values [18]: 0.39 µg/mL; MIC values (Escherichia coli H560): 0.2 µg/mL; MIC values [19]: 0.78 µg/mL; MIC values [20]: 0.78 µg/mL; MIC values [21]: 3.1 µg/mL; MIC values [22]: 0.39 µg/mL
2 | NC1CN(c2c(F)cc3c(=O)c(C(=O)O)cn(C4CC4)c3c2F)CC12OCCO2 (centres unmarked) [Example 274, 1-Cyclopropyl-6,8-difluoro-7-(9-amino-1,4-dioxa-7-azaspiro[4.4]non-7-yl)-1,4-dihydro-4-oxo-3-quinolinecarboxylic acid] | 0.1 (≈ 0.245 µM) | 1.56 (≈ 3.83 µM) | 0.78 (≈ 1.91 µM) | 0.2 (≈ 0.491 µM) | 0.05 (≈ 0.123 µM) | 0.2 (≈ 0.491 µM) | 0.05 (≈ 0.123 µM) | 1.56 (≈ 3.83 µM) | 6.2 (≈ 15.2 µM) | 0.2 (≈ 0.491 µM) | 0.2 (≈ 0.491 µM) | 0.1 (≈ 0.245 µM) | 0.05 (≈ 0.123 µM) | 0.002 (≈ 0.00491 µM) | 0.2 (≈ 0.491 µM) | 0.05 (≈ 0.123 µM) | 0.78 (≈ 1.91 µM) | 0.78 (≈ 1.91 µM) | 0.39 (≈ 0.957 µM) | 6.2 (≈ 15.2 µM) | MIC values [15]: 0.39 µg/mL (≈ 0.957 µM); MIC values [16]: 0.1 µg/mL (≈ 0.245 µM); MIC values [17]: 0.39 µg/mL (≈ 0.957 µM); MIC values [18]: 0.1 µg/mL (≈ 0.245 µM); MIC values (Escherichia coli H560): 0.2 µg/mL (≈ 0.491 µM); MIC values [19]: 0.39 µg/mL (≈ 0.957 µM); MIC values [20]: 0.1 µg/mL (≈ 0.245 µM); MIC values [21]: 1.56 µg/mL (≈ 3.83 µM); MIC values [22]: 0.1 µg/mL (≈ 0.245 µM); MIC values [23]: 0.05 µg/mL (≈ 0.123 µM)
3 | C[C@@H]1COc2c(N3CCC4(CC3)OCCCO4)c(F)cc3c(=O)c(C(=O)O)cn1c23 [Example 330] | 0.78 (≈ 1.86 µM) | 12.5 (≈ 29.9 µM) | 12.5 (≈ 29.9 µM) | 1.56 (≈ 3.73 µM) | 0.78 (≈ 1.86 µM) | 6.2 (≈ 14.8 µM) | 0.1 (≈ 0.239 µM) | 12.5 (≈ 29.9 µM) | 12.5 (≈ 29.9 µM) | 1.56 (≈ 3.73 µM) | 0.78 (≈ 1.86 µM) | 0.2 (≈ 0.478 µM) | 1.56 (≈ 3.73 µM) | 0.01 (≈ 0.0239 µM) | 3.1 (≈ 7.41 µM) | 0.1 (≈ 0.239 µM) | 12.5 (≈ 29.9 µM) | 50 (≈ 119 µM) | 1.56 (≈ 3.73 µM) | 6.2 (≈ 14.8 µM) | MIC values [24]: > 100 µg/mL; MIC values [25]: > 100 µg/mL; MIC values [15]: 0.78 µg/mL (≈ 1.86 µM); MIC values [16]: 0.2 µg/mL (≈ 0.478 µM); MIC values [17]: 3.1 µg/mL (≈ 7.41 µM); MIC values [18]: 0.2 µg/mL (≈ 0.478 µM); MIC values (Escherichia coli H560): 1.56 µg/mL (≈ 3.73 µM); MIC values [19]: 0.78 µg/mL (≈ 1.86 µM); MIC values [20]: 0.2 µg/mL (≈ 0.478 µM); MIC values [21]: 12.5 µg/mL (≈ 29.9 µM); MIC values [22]: 0.78 µg/mL (≈ 1.86 µM); MIC values [23]: 0.1 µg/mL (≈ 0.239 µM)
